Source: patent US9765061B2, “Trail enhancers for the selective killing of cancer cells” (The Scripps Research Institute, priority 2013, dated 2017)

Tests used:
cancer and normal cells = assay: XTT-based viability of cancer and normal cells grown 18 h (FIG. 12); type: cell-based; conditions: TRAIL alone or the same doses of C12 without TRAIL
Protocol: FIG. 12. (C12) promotes the TRAIL-mediated killing of cancer cells, a), c) Western blot analysis of PARP cleavage in cancer or normal cells treated for 3 h with TRAIL, (C12) or a combination of both, as indicated, b), d) XTT-based assay monitoring the viability of cancer and normal cells grown for 18 h in media containing TRAIL and the indicated doses of (C12). Cell survival was ˜100% in control samples (untreated cells) as well as in samples incubated with TRAIL alone or the same doses of (C12) without TRAIL.
Cancer and normal cell culture. Lung cancer cell line A549 and colon cancer cell line HT29 were purchased from ATCC. Breast cancer cell line MDA-MB-468 was received from J. C. Reed (The Burnham Institute, La Jolla, Calif.). […]
(§1) Cytotoxicity was determined by using the XTT-based toxicology assay kit (Sigma, St. Louis, Miss.) in accordance with the manufacturer's instructions. For some experiments, to confirm the apoptotic nature of toxicity, cells were analyzed using protocols and instructions of the Annexin V-FITC apoptosis detection kit (Biovision, Mountain View, Calif.). In addition, caspase 3, 8 and 9 activities were determined by colorimetric assays (R&D System), and the data are expressed as fold increases compared to the values of untreated or control-treated cells (n=5).

[1] = tested on: bone marrow-derived macrophages (BMDM); assay: Responses of bone marrow-derived macrophages to AHLs (toxicity, Western blot); type: cell-based, mouse
Protocol: FIG. 13. AHL-mediated inhibition of inflammation-induced NF-κB signaling is sufficient for rendering tumors susceptible to TRAIL-induced apoptosis. a) Western blot analysis of PARP cleavage in cancer cells stimulated for 3 h with TRAIL or its combination with different AHLs as indicated, b) Western blot analysis of PARP cleavage as well as phosphorylated forms of eIF2α and p38 in extracts from bone marrow-derived macrophages (BMDM) stimulated with (C12) or (3-N2), i.e., (S)-(3-N2), as indicated, c) Western blot analysis of PARP cleavage and temporal profiles of IκBα expression in BMDM extracts prepared after treatment with LPS or its combination with (C12) or (3-N2). d) Inhibitory effect of (C12) and its derivatives on LPS-induced TNF production in BMDM. e) Lung cancer cells were exposed to (3-N2) (10 μM), TRAIL (0.5 ng/ml), TNF (20 ng/ml) or their combinations as indicated. After 2 h, cell lysates were prepared and analyzed by Western blot for PARP cleavage, IκBα and actin.
Mice, bone marrow-derived macrophages and other cell culture, C57BL/6 mice were purchased from the Jackson Laboratory (Bar Harbor, Me.). Bone marrow-derived macrophages (BMDM) and murine embryonic fibroblasts (MEF) were prepared by using standard protocols that were approved by the TSRI Animal Care and Use Committee. L929/NCTC clone 929 (connective tissue, mouse) cell lines were purchased from ATCC (Manassas, Va.). MEFs and L929 cell line were maintained in GM (see above). BMDM were cultured in 70% GM and 30% L929 conditioned medium. In general, cells (˜60-70% confluence) were incubated in fresh medium for 12-14 h before stimulation.
Antibodies and Western blot analysis. Anti-eIF2α, phospho-eIF2α[…](p-eIF2α), p38, p-p38 (Thr180/Tyr132), p-RelA (Ser536), p-I κB ? 32/36), PARP 20 antibodies were purchased from Cell Signaling; anti-RelA, I κB α, IκBβ were from Santa Cruz Biotechnology. Cellular extracts were prepared and analyzed by Western blot assay as previously described.^E3
Cell stimulation. In all experiments, BMDM were stimulated with LPS (100 ng/ml), AHL (10-25 μM; usually BMDM and primary macrophages were stimulated by 25 μM of C12) or their combination as indicated in the figure legends. If not indicated, cancer and normal cells were stimulated with 40 ng/ml of TNFα, 20 ng/ml TRAIL and 10 μM (in case of cancer cells) or 25 μM (in case of normal cells) of AHL.

[2] = tested on: primary human hepatocytes; assay: Viability and apoptosis of primary human hepatocytes from normal donors; type: cell-based; conditions: hepatocytes from normal donors
Protocol: FIG. 8: Safety and pro-apoptotic. activity of (C12). Cells were incubated with TRAIL, (C12), […] (Bor) or a combination of TRAIL and (C12) or Bor as indicated, and cell viability (top panels) or the cleavage of PARP (bottom panels) was determined. (A) Lung cancer cell line A549. (B) Primary human hepatocytes from normal donor.
Therefore, to assess a potential utility of C12 for anti-cancer therapy, we compared the effects of these two compounds—(C12) and bartezomid (Bor)—on TRAIL-mediated apoptosis in cancerous A549 cells and primary human hepatocytes.
Cancer and normal cell culture. Lung cancer cell line A549 and colon cancer cell line HT29 were purchased from ATCC. Breast cancer cell line MDA-MB-468 was received from J. C. Reed (The Burnham Institute, La Jolla, Calif.). Cell lines were maintained in growth medium (GM): DMEM medium (4.5 g/l glucose) supplemented with 10% FBS (HyClone, Logan, Utah), L-glutamine, penicillin/streptomycin and nonessential ammo acids (Invitrogen, Carlsbad, Calif.). Normal human bronchial epithelial (NHBE) cells and normal human mammary epithelial (NHME) cells were obtained from Cambrex (East Rutherford, N.J.) and cultured as recommended by the manufacturer. Normal human colon smooth muscle cells were obtained from ScienCell Research Lab (San Diego, Calif.) and cultured as recommended by the manufacturer. Primary cultures of human hepatocytes (freshly plated; not cryopreserved) and culture medium were obtained from Celsis In Vitro Technologies (Baltimore, Md.). Upon receipt of the cells, the medium was gently aspirated from each well and replenished with InVitroGRO HI medium supplemented with Torpedo Antibiotic Mix (Celsis), and the plates were kept in a 5% CO2, at 37° C. in an incubator at saturating humidity. After 2-4 h, cells were stimulated as described in the text and FIG. legends.
as §1

MCF7 cells = assay: PARP cleavage in breast cancer MCF7 cells (Vector, Bcl-2, CLARP); type: cell-based, human; conditions: control MCF7, MCF7/Bcl-2 and MCF7/CLARP, FIG. 3B
Protocol: FIG. 3: Sensitivity of cancerous and non-cancerous cells to apoptosis induced by TNF, C12 or a combination of C12 and TNF. Cells were incubated with TNF, (C12) or a combination of TNF and (C12) as indicated, and the cleavage of PARP (an apoptotic marker) was determined by Western blot. (A and B) Breast cancer MCF-7 cells transfected with control vector (Vector) and vector expressing Bcl-2 or CLARP. (C) HeLa cell line. (D) Normal human bronchial epithelial cells (NHBE).
To further test this hypothesis, we compared sensitivity of breast cancer cell line MCF7 to apoptosis induced by TNF, C12 or their combination. In these experiments we used a control variant of MCF7 (Vector) as well as MCF7 cells stably expressing negative regulators of apoptosis, such as Bcl-2 and CLARP; Bcl-2 is an inhibitor of the intrinsic apoptotic pathway, whereas CLARP inhibits receptor-dependent apoptotic signaling, also called the extrinsic apoptotic pathway. The cells were incubated with TNF, C12 or their combination, and protein extracts were analyzed by Western blot for the cleavage of PARP, a biochemical marker indicative of apoptosis ^26.
Antibodies and Western blot analysis. Anti-eIF2α, phospho-eIF2α[…](p-eIF2α), p38, p-p38 (Thr180/Tyr132), p-RelA (Ser536), p-I κB ? […] Cellular extracts were prepared and analyzed by Western blot assay as previously described.^E3

CCCCCCCCCC(=O)CC(=O)N[C@H]1CCOC1=O [Compound 1, N-(3-oxo-dodecanoyl) homoserine lactone]
Cell survival (cancer and normal cells): ~100%
eIF2α phosphorylation in macrophages ([1]; Western blot, FIG. 13b): induced eIF2α phosphorylation in a similar fashion
blocking LPS-induced re-synthesis of IκBα ([1]; macrophages activated by LPS, FIG. 13c): equally effective
toxicity to human hepatocytes, compound alone or in combination with TRAIL [2]: practically healthy and intact
sensitivity to apoptosis (PARP cleavage), compound alone (MCF7 cells): showed sensitivity
